# Assay: Toxicity in athymic BALB/c mouse implanted with mouse 4T1 cells assessed as reduction in tolerance at 12.5 mg/kg, ip administered for 14 days
# Assay type: organism-based
# Settings: in vivo, 336 h, time 14 day
compound,measurement,value
COc1ccc(C(=O)Nc2cc(-c3ccnc(N4CCC(O)CC4)c3)ccn2)cc1,Activity,Non-Toxic
